Results published in US4318916A, “Antibiotic PS-5 and derivatives having β-lactamase inhibitory activity and production thereof” (Sanraku-Ocean Co., Ltd., priority 1977, dated 1982).
Converted amounts (≈) assume the structure as drawn. Like-named read-outs stand apart in the source and are kept apart here. One block for each compound: values may come before it.

Columns and labels:
Assay type in all cases: cell-based
Proteus vulgaris P-5 [1] = test: Potentiation disc assay with cephaloridine (Table 10); conditions: for zone of inhibition at 625 µg/mL / zone of inhibition at 2500 µg/mL / zone of inhibition at 10000 µg/mL: P5, 18 h, read-out: Inhibition zone Without CER; for Potentiation of the antimicrobial activity of cephaloridine: disc assay, Table 10; for Inhibition zone With CER: 50 μg/ml cephaloridine in agar
Experimental: (A) Ten milliliters of molten nutrient agar containing 50 μg/ml of penicillin G or cephaloridine, 0.8% of Kyokuto Nutrient Broth Powder and 1.0% of Difco Bacto-Agar (pH 7.0) were seeded with the beta-lactam-resistant, beta-lactamase-producing microorganisms indicated in Tables 9 and 10, and poured in a 9-cm Petri dish to provide the bio-assay agar plate. On this assay plate, 8-mm pulp discs containing 25 μl each of antibiotic PS-5 solutions at the indicated concentrations were placed and incubated at 35° C. for 18 hours before reading the inhibition zones. The control assay plate was similarly prepared without penicillin G nor cephaloridine. As reference antibiotics, penicillin G, ampicillin, oxacillin and cefazolin were disc-assayed under the same conditions.

[2] = tested on: Bacillus subtilis ATCC 6633; test: MIC by broth dilution (Table 8); conditions: ATCC6633, 20 h; Bacillus subtilis ATCC 6633; read-out: Minimum inhibitory concentration
Experimental: (§1) The MIC values of antibiotic PS-5 sodium salt were determined on various pathogenic microorganisms including resistant strains by the broth dilution method utilizing the BRAIN HEART INFUSION BROTH `Eiken` (EIKEN CHEMICAL CO., LTD.).
(§2) The antibiotic PS-5 sodium salt was dissolved in BRAIN HEART INFUSION BROTH `Eiken` (EIKEN CHEMICAL CO., LTD.) (pH 7.0) at concentration in the range of 5-50 μg/ml, from which appropriate dilution series were made in the same liquid medium. The microorganisms listed in Table 8 were cultivated for 18 hours in BRAIN HEART INFUSION BROTH `Eiken` at 28° C. and inoculated into the said dilution series of antibiotic PS-5 at a final inoculum size of 1×10^5 cells/ml. The cultures were allowed to stand at 35° C. for 20 hours, and then the growth of the microorganisms was read at each dilution of antibiotic PS-5. The minimum inhibitory concentration (MIC) represents the smallest concentration of the antibiotic PS-5 (sodium salt) where no propagation of the relevant microorganism was visually confirmed. As the controls, two known beta-lactam antibiotics, cephaloridine and cefoxitin were dissolved in brain heart infustion broth at pH 7.0 at concentrations ranging from 1 μg/ml to 100 μ g/ml and then diluted to make several dilution series in the above mentioned liquid medium. These samples were treated as described above for the MIC determinations.

[3] = tested on: Staphylococcus aureus Smith; test: MIC by broth dilution (Table 8); conditions: 20 h; Staphylococcus aureus Smith; PS-5 as sodium salt; read-out: Minimum inhibitory concentration
Experimental: as §1, §2

[4] = tested on: Streptococcus pyogenes NY-5; test: MIC by broth dilution (Table 8); conditions: NY5, 20 h; Streptococcus pyogenes NY-5; 10% horse blood supplemented into the medium; read-out: Minimum inhibitory concentration
Experimental: as §1, §2

[5] = tested on: Diplococcus pneumoniae Type III; test: MIC by broth dilution (Table 8); conditions: Streptococcus pneumoniae, 20 h; Diplococcus pneumoniae Type III; 10% horse blood supplemented into the medium; read-out: Minimum inhibitory concentration
Experimental: as §1, §2

[6] = tested on: Staphylococcus aureus EDA 209 P; test: MIC by broth dilution (Table 8); conditions: EDA209P, 20 h; Staphylococcus aureus EDA 209 P; PS-5 as sodium salt; read-out: Minimum inhibitory concentration
Experimental: as §1, §2

[7] = tested on: Staphylococcus aureus Bx-1633; test: MIC by broth dilution (Table 8); conditions: BX1633, 20 h; Staphylococcus aureus Bx-1633; PS-5 as sodium salt; read-out: Minimum inhibitory concentration
Experimental: as §1, §2

Proteus sp. P-22 = test: MIC by broth dilution (Table 8); conditions: 20 h; Proteus sp. P-22; read-out: Minimum inhibitory concentration
Experimental: as §1
as §2, with “determinations. In addition to the MIC values of antibiotic PS-5, those of cephaloridine and cefoxitin are included for reference.” for “determinations.”

[8] = tested on: Alcaligenes faecalis B-326; test: MIC by broth dilution (Table 8); conditions: B326, 20 h; Alcaligenes faecalis B-326; read-out: Minimum inhibitory concentration
Experimental: as §1
as §2, with “determinations. In addition to the MIC values of antibiotic PS-5, those of cephaloridine and cefoxitin are included for reference.” for “determinations.”

[9] = tested on: Staphylococcus aureus Russell; test: MIC by broth dilution (Table 8); conditions: 20 h; Staphylococcus aureus Russell; PS-5 as sodium salt; read-out: Minimum inhibitory concentration
Experimental: as §1
as §2, with “determinations. In addition to the MIC values of antibiotic PS-5, those of cephaloridine and cefoxitin are included for reference.” for “determinations.”

Escherichia coli K 12 = test: MIC by broth dilution (Table 8); conditions: K12, 20 h; Escherichia coli K 12; read-out: Minimum inhibitory concentration
Experimental: as §1
as §2, with “determinations. In addition to the MIC values of antibiotic PS-5, those of cephaloridine and cefoxitin are included for reference.” for “determinations.”

[10] = tested on: Enterobacter cloacae E-16; test: MIC by broth dilution (Table 8); conditions: E16, 20 h, betalactamase producer, read-out: Minimum inhibitory concentration
Experimental: as §1
as §2, with “determinations. In addition to the MIC values of antibiotic PS-5, those of cephaloridine and cefoxitin are included for reference.” for “determinations.”

Proteus vulgaris P-5 [11] = test: MIC by broth dilution (Table 8); conditions: P5, 20 h, betalactamase producer, read-out: Minimum inhibitory concentration
Experimental: as §1
as §2, with “determinations. In addition to the MIC values of antibiotic PS-5, those of cephaloridine and cefoxitin are included for reference.” for “determinations.”

[12] = tested on: Klebsiella pneumoniae K-2; test: MIC by broth dilution (Table 8); conditions: K2, 20 h, betalactamase producer, read-out: Minimum inhibitory concentration
Experimental: as §1
as §2, with “determinations. In addition to the MIC values of antibiotic PS-5, those of cephaloridine and cefoxitin are included for reference.” for “determinations.”

Serratia marcescens S-18 = test: MIC by broth dilution (Table 8); conditions: S18, 20 h, betalactamase producer, read-out: Minimum inhibitory concentration
Experimental: as §1
as §2, with “determinations. In addition to the MIC values of antibiotic PS-5, those of cephaloridine and cefoxitin are included for reference.” for “determinations.”

Proteus mirabilis P-6 = test: MIC by broth dilution (Table 8); conditions: P6, 20 h, resistant to kanamycin, gentamicin and tobramycin, read-out: Minimum inhibitory concentration
Experimental: as §1
as §2, with “determinations. In addition to the MIC values of antibiotic PS-5, those of cephaloridine and cefoxitin are included for reference.” for “determinations.”

Proteus rettgeri P-7 = test: MIC by broth dilution (Table 8); conditions: Providencia rettgeri, P7, 20 h, resistant to gentamicin and tobramycin, read-out: Minimum inhibitory concentration
Experimental: as §1
as §2, with “determinations. In addition to the MIC values of antibiotic PS-5, those of cephaloridine and cefoxitin are included for reference.” for “determinations.”

Enterobacter sp. E-8 = test: MIC by broth dilution (Table 8); conditions: SP.E8, 20 h; Enterobacter sp. E-8; betalactamase producer; read-out: Minimum inhibitory concentration
Experimental: as §1
as §2, with “determinations. In addition to the MIC values of antibiotic PS-5, those of cephaloridine and cefoxitin are included for reference.” for “determinations.”

Providencia sp. P-8 = test: MIC by broth dilution (Table 8); conditions: SP.P8, 20 h, resistant to kanamycin, gentamicin and tobramycin, read-out: Minimum inhibitory concentration
Experimental: as §1
as §2, with “determinations. In addition to the MIC values of antibiotic PS-5, those of cephaloridine and cefoxitin are included for reference.” for “determinations.”

[13] = tested on: Enterobacter aerogenes E-19; test: MIC by broth dilution (Table 8); conditions: Klebsiella aerogenes, E19, 20 h, betalactamase producer, read-out: Minimum inhibitory concentration
Experimental: as §1
as §2, with “determinations. In addition to the MIC values of antibiotic PS-5, those of cephaloridine and cefoxitin are included for reference.” for “determinations.”

Citrobacter freundii E-9 = test: MIC by broth dilution (Table 8); conditions: E9, 20 h; Citrobacter freundii E-9; betalactamase producer; read-out: Minimum inhibitory concentration
Experimental: as §1
as §2, with “determinations. In addition to the MIC values of antibiotic PS-5, those of cephaloridine and cefoxitin are included for reference.” for “determinations.”

[14] = Proteus vulgaris P-5, reference antibiotic 625 μg/ml
[15] = Proteus vulgaris P-5, reference antibiotic 2,500 μg/ml
[16] = Proteus vulgaris P-5, reference antibiotic 10,000 μg/ml

SMILES: Cc1nnc(SCC2=C(C(=O)O)N3C(=O)[C@@H](NC(=O)Cn4cnnn4)[C@H]3SC2)s1 [Cefazolin, cefazolin]
zone of inhibition at 625 µg/mL (Proteus vulgaris P-5 [1]; [14]): 0 mm
zone of inhibition at 2500 µg/mL (Proteus vulgaris P-5 [1]; [15]): 0 mm
zone of inhibition at 10000 µg/mL (Proteus vulgaris P-5 [1]; [16]): 14.6 mm
Potentiation of the antimicrobial activity of cephaloridine (Proteus vulgaris P-5 [1]; Proteus vulgaris P-5): could not increase the antimicrobial activity of cephaloridine
Inhibition zone With CER (Proteus vulgaris P-5 [1]; [14]): 0 mm
Inhibition zone With CER (Proteus vulgaris P-5 [1]; [15]): 0 mm
Inhibition zone With CER (Proteus vulgaris P-5 [1]; [16]): 12.0 mm

MIC [2]: 1.25 µg/mL (≈ 2.92 µM)
MIC [3]: 2.5 µg/mL
MIC [4]: 0.63 µg/mL (≈ 1.47 µM)
MIC [5]: 1.25 µg/mL (≈ 2.92 µM)
MIC [6]: 1.25 µg/mL
MIC [7]: 1.25 µg/mL
MIC (Proteus sp. P-22): 12.5 µg/mL (≈ 29.2 µM)
MIC [8]: 1.56 µg/mL (≈ 3.65 µM)
MIC [9]: 2.5 µg/mL
MIC (Escherichia coli K 12): 2.5 µg/mL (≈ 5.85 µM)
MIC [10]: > 100 µg/mL
MIC (Proteus vulgaris P-5 [11]): 12.5 µg/mL (≈ 29.2 µM)
MIC [12]: 6.25 µg/mL (≈ 14.6 µM)
MIC (Serratia marcescens S-18): 50 µg/mL (≈ 117 µM)
MIC (Proteus mirabilis P-6): 12.5 µg/mL (≈ 29.2 µM)
MIC (Proteus rettgeri P-7): 6.25 µg/mL (≈ 14.6 µM)
MIC (Enterobacter sp. E-8): 12.5 µg/mL (≈ 29.2 µM)
MIC (Providencia sp. P-8): 25 µg/mL (≈ 58.5 µM)
MIC [13]: > 100 µg/mL
MIC (Citrobacter freundii E-9): > 100 µg/mL
SMILES: CO[C@@]1(NC(=O)Cc2cccs2)C(=O)N2C(C(=O)O)=C(COC(N)=O)CS[C@@H]21 [Cefoxitin, cefoxitin]

SMILES: Cc1onc(-c2ccccc2)c1C(=O)N[C@@H]1C(=O)N2[C@@H]1SC(C)(C)[C@@H]2C(=O)O [Oxacillin, oxacillin]
Potentiation of the antimicrobial activity of cephaloridine (Proteus vulgaris P-5 [1]; Proteus vulgaris P-5): could not increase the antimicrobial activity of cephaloridine
Inhibition zone With CER (Proteus vulgaris P-5 [1]; [14]): 0 mm
Inhibition zone With CER (Proteus vulgaris P-5 [1]; [15]): 0 mm
Inhibition zone With CER (Proteus vulgaris P-5 [1]; [16]): 0 mm
zone of inhibition at 625 µg/mL (Proteus vulgaris P-5 [1]; Proteus vulgaris): 0 mm
zone of inhibition at 2500 µg/mL (Proteus vulgaris P-5 [1]; Proteus vulgaris): 0 mm
zone of inhibition at 10000 µg/mL (Proteus vulgaris P-5 [1]; Proteus vulgaris): 0 mm

SMILES: CC1(C)S[C@@H]2[C@H](NC(=O)Cc3ccccc3)C(=O)N2[C@H]1C(=O)O [Penicillin G, penicillin G]
Potentiation of the antimicrobial activity of cephaloridine (Proteus vulgaris P-5 [1]; Proteus vulgaris P-5): could not increase the antimicrobial activity of cephaloridine
Inhibition zone With CER (Proteus vulgaris P-5 [1]; [14]): 0 mm
Inhibition zone With CER (Proteus vulgaris P-5 [1]; [15]): 0 mm
Inhibition zone With CER (Proteus vulgaris P-5 [1]; [16]): 14.5 mm
zone of inhibition at 625 µg/mL (Proteus vulgaris P-5 [1]; Proteus vulgaris): 0 mm
zone of inhibition at 2500 µg/mL (Proteus vulgaris P-5 [1]; Proteus vulgaris): 0 mm
zone of inhibition at 10000 µg/mL (Proteus vulgaris P-5 [1]; Proteus vulgaris): 14.9 mm
